Data published in the PolyMetriX glass transition set.
± gives the standard deviation of the reports.

Question: Which glass transition temperature does the source give for `*C(=O)Nc1cccc(NC(=O)c2ccc3c(c2)C(=O)N(c2ccc(Oc4cccc5c(Oc6ccc(N7C(=O)c8ccc(*)cc8C7=O)cc6)cccc45)cc2)C3=O)c1` (repeat unit) here?
Answer: The glass transition temperature was 263.00 °C.

Question: Which glass transition temperature does the source give for `*Nc1ccc(NC(=O)c2ccc(NC(=O)CCCCCCCCC(=O)Nc3ccc(C(*)=O)cc3)cc2)cc1C(=O)OCCCCCCCCCCCCCC` (repeat unit) here?
Answer: Its glass transition temperature is 225.00 °C.

Question: For `*c1ccc2c(c1)C(=O)N(c1ccc(C(=O)Nc3ccc(C(c4ccc(NC(=O)c5ccc(N6C(=O)c7ccc(C(*)(C(F)(F)F)C(F)(F)F)cc7C6=O)cc5)cc4)(C(F)(F)F)C(F)(F)F)cc3)cc1)C2=O` (repeat unit), which glass transition temperature is on record?
Answer: The glass transition temperature was 351.00 °C.

Question: Which glass transition temperature does the source give for `*/C=C/c1cc(OCC(CC)CCCC)c(*)cc1-c1ccc(F)c(C(F)(F)F)c1` (repeat unit) here?
Answer: The glass transition temperature was 122.00 °C.

Question: For `*CCCCCC(=O)Oc1ccc(C(C)(C)c2ccc(OC(=O)c3ccc4c(c3)C(=O)N(*)C4=O)cc2)cc1` (repeat unit), which glass transition temperature is on record?
Answer: The glass transition temperature was 110.00 °C.

Question: With `*CC(CCCCCC)C(CCCCCC)COC(=O)c1ccc(C(=O)O*)cc1` (repeat unit) as the compound, how does the glass transition temperature read?
Answer: Its glass transition temperature is -15.50 °C.

Question: Which glass transition temperature does the source give for `*c1ccc(CC(=O)Nc2ccc(Cc3ccc(NC(=O)Cc4ccc(-c5sc(*)c(-c6ccccc6)c5-c5ccccc5)cc4)cc3)cc2)cc1` (repeat unit) here?
Answer: Its glass transition temperature is 227.00 °C.

Question: Which glass transition temperature does the source give for `*CC(*)SCCCC` (repeat unit) here?
Answer: Its glass transition temperature is -20.00 °C.

Question: For `*=Nc1ccc(/N=C(/C=C/C(=*)c2ccccc2)c2ccccc2)cc1` (repeat unit), which glass transition temperature is on record?
Answer: The glass transition temperature was 157.00 °C.

Question: Which glass transition temperature does the source give for `*Nc1ccc(NC(=O)c2ccc(NC(=O)CCCCCCCCCCC(=O)Nc3ccc(C(*)=O)cc3)cc2)cc1C(=O)OCCCCCCCCCCCCCCCCCC` (repeat unit) here?
Answer: The glass transition temperature was 196.50 °C.

Question: For `*c1cccc(P(=O)(c2ccccc2)c2cccc(-n3c(=O)c4cc5c(=O)n(*)c(=O)c5c(-c5ccccc5)c4c3=O)c2)c1` (repeat unit), which glass transition temperature is on record?
Answer: The glass transition temperature was 325.00 °C.

Question: With `*O[Si](*)(C)CCCC(=O)OC` (repeat unit) as the compound, how does the glass transition temperature read?
Answer: Its glass transition temperature is -72.00 °C.

Question: Which glass transition temperature does the source give for `*c1ccc(OCCCCCCCCCCCOC(=O)c2ccc(C(=O)OCCCCCCCCCCCOc3ccc(-c4nnc(*)s4)cc3)cc2)cc1` (repeat unit) here?
Answer: Its glass transition temperature is 64.00 °C.

Question: With `*Oc1ccc(C(=O)c2ccc(C(=O)c3ccc(Oc4cccc(Cc5cccc(*)c5)c4)cc3)cc2)cc1` (repeat unit) as the compound, how does the glass transition temperature read?
Answer: Its glass transition temperature is 122.00 °C.

Question: For `*CCCCOC(=O)Nc1ccc(Cc2ccc(NC(=O)OCCCCn3c4ccccc4c4cc(/C=C(\C#N)C(=O)OCCCCCCOC(=O)/C(C#N)=C/c5ccc6c(c5)c5ccccc5n6*)ccc43)cc2)cc1` (repeat unit), which glass transition temperature is on record?
Answer: Its glass transition temperature is 122.00 °C.

Question: With `*CCN1C(=O)c2ccc(C(c3ccc4c(c3)C(=O)N(*)C4=O)(C(F)(F)F)C(F)(F)F)cc2C1=O` (repeat unit) as the compound, how does the glass transition temperature read?
Answer: Its glass transition temperature is 180.00 °C.

Question: Which glass transition temperature does the source give for `*CCCCCCCCCN1C(=O)c2ccc(C(c3ccc4c(c3)C(=O)N(*)C4=O)(C(F)(F)F)C(F)(F)F)cc2C1=O` (repeat unit) here?
Answer: Its glass transition temperature is 135.00 °C.

Question: For `*Oc1ccc(NC(=O)c2cc(C(=O)Nc3ccc(Oc4ccc(C(c5ccc(*)cc5)(C(F)(F)F)C(F)(F)F)cc4)cc3)cc(C(C)(C)C)c2)cc1` (repeat unit), which glass transition temperature is on record?
Answer: The glass transition temperature was 255.50 °C.

Question: For `*c1ccc2c(c1)C(CCCCCCCC)(CCCCCCCC)c1cc(*)ccc1-2` (repeat unit) [poly(9,9-dioctylfluorene)], which glass transition temperature is on record?
Answer: Its glass transition temperature is 71.00 ± 10 °C.

Question: Which glass transition temperature does the source give for `*c1ccc(Oc2ccc(-c3ccc(Oc4ccc(-c5ncc(*)o5)cc4C(F)(F)F)cc3)cc2)c(C(F)(F)F)c1` (repeat unit) here?
Answer: The glass transition temperature was 200.00 °C.

Question: For `*C(=O)CCCCCCCCC(=O)N1CCN(*)CC1` (repeat unit), which glass transition temperature is on record?
Answer: Its glass transition temperature is 82.00 °C.

Question: For `*CC(*)CNc1ccc([N+](=O)[O-])cn1` (repeat unit), which glass transition temperature is on record?
Answer: The glass transition temperature was 151.00 °C.

Question: Which glass transition temperature does the source give for `*c1cc(C(c2ccc(O)c(-n3c(=O)c4cc5c(=O)n(*)c(=O)c5cc4c3=O)c2)(C(F)(F)F)C(F)(F)F)ccc1O` (repeat unit) here?
Answer: Its glass transition temperature is 350.00 °C.

Question: Which glass transition temperature does the source give for `*CCCOC(=O)OCCCCCCOC(=O)OCCCN1C(=O)c2ccc(C(=O)c3ccc4c(c3)C(=O)N(*)C4=O)cc2C1=O` (repeat unit) here?
Answer: Its glass transition temperature is 70.00 °C.

Question: With `*Nc1ccc(NC(=O)c2ccc(NC(=O)CCCCCCCCCCCCC(=O)Nc3ccc(C(*)=O)cc3)cc2)cc1C(=O)OCCCCCCCCCCCCCCCC` (repeat unit) as the compound, how does the glass transition temperature read?
Answer: The glass transition temperature was 250.00 °C.

Question: With `*OCCOC(=O)c1cc(/N=N/c2ccc(OCC)cc2)ccc1-c1ccc(/N=N/c2ccc(OCC)cc2)cc1C(=O)OCCOc1nc(-c2ccc(OCCCC)cc2)nc(*)c1-c1ccc(OC)cc1` (repeat unit) as the compound, how does the glass transition temperature read?
Answer: Its glass transition temperature is 126.00 °C.

Question: Which glass transition temperature does the source give for `*Oc1ccc(S(=O)(=O)c2ccc3cc(S(=O)(=O)c4ccc(Oc5c(C)cc(-c6cc(C)c(*)c(C)c6C)c(C)c5C)cc4)ccc3c2)cc1` (repeat unit) here?
Answer: The glass transition temperature was 300.00 °C.

Question: Which glass transition temperature does the source give for `*c1ccc(Oc2ccc(C(=O)c3ccc(Oc4ccc(-c5c6c(c(*)c7ccccc57)C(=O)N(c5ccccc5C(F)(F)F)C6=O)cc4)cc3)cc2)cc1` (repeat unit) here?
Answer: Its glass transition temperature is 260.00 °C.

Question: For `*OC1CCC(OC(=O)OCCCCOC(*)=O)CC1` (repeat unit), which glass transition temperature is on record?
Answer: Its glass transition temperature is 30.00 °C.

Question: With `*CCCCCCCCCCCCNC(=O)C(OC)C(OC)C(=O)N*` (repeat unit) as the compound, how does the glass transition temperature read?
Answer: The glass transition temperature was 84.00 °C.

Question: Which glass transition temperature does the source give for `*CC(*)(C)C(=O)OCCCCCOc1ccc(-c2ccc(C#N)cc2)cc1` (repeat unit) here?
Answer: The glass transition temperature was 60.00 °C.

Question: Which glass transition temperature does the source give for `*CCCCCOc1cccc(NC(=O)c2cccc(C(=O)Nc3cccc(O*)c3)c2)c1` (repeat unit) here?
Answer: The glass transition temperature was 131.50 °C.

Question: For `*CCCCCCOC(=O)c1cccc(C(=O)O*)c1` (repeat unit), which glass transition temperature is on record?
Answer: The glass transition temperature was 5.50 °C.

Question: Which glass transition temperature does the source give for `*Oc1ccc(C(C)(C)c2ccc(OC(=O)c3ccc(S(=O)(=O)c4ccc(C(*)=O)cc4)cc3)cc2)cc1` (repeat unit) here?
Answer: The glass transition temperature was 220.00 °C.

Question: With `*c1ccc(-c2ccc(C3(*)CCCCC3)cc2)cc1` (repeat unit) as the compound, how does the glass transition temperature read?
Answer: The glass transition temperature was 287.00 °C.

Question: Which glass transition temperature does the source give for `*O[Si](*)(C)CCCOc1ccc(-c2ccc(C#N)cc2)cc1` (repeat unit) here?
Answer: Its glass transition temperature is 38.00 °C.

Question: Which glass transition temperature does the source give for `*C(=O)Nc1ccc(Oc2ccc(C(C)(C)c3ccc(Oc4ccc(NC(=O)c5ccc6c(c5)C(=O)N(c5ccc(Oc7cccc8c(Oc9ccc(N%10C(=O)c%11ccc(*)cc%11C%10=O)cc9)cccc78)cc5)C6=O)cc4)cc3)cc2)cc1` (repeat unit) here?
Answer: The glass transition temperature was 235.00 °C.

Question: For `*CC(*)(F)C(=O)OCCC(F)(F)C(F)(F)C(F)(F)C(F)(F)C(F)(F)C(F)(F)C(F)(F)C(F)(F)C(F)(F)C(F)(F)F` (repeat unit), which glass transition temperature is on record?
Answer: The glass transition temperature was 53.00 °C.

Question: Which glass transition temperature does the source give for `*Nc1ccccc1CCc1ccc(NC(=O)Nc2ccc(CCc3ccc(NC(*)=O)cc3)cc2)cc1` (repeat unit) here?
Answer: Its glass transition temperature is 217.00 °C.

Question: Which glass transition temperature does the source give for `*c1cccc(N2C(=O)c3cccc(Oc4ccc(C(C)(C)c5ccc(Oc6cccc7c6C(=O)N(*)C7=O)cc5)cc4)c3C2=O)c1` (repeat unit) here?
Answer: Its glass transition temperature is 227.50 °C.

Question: Which glass transition temperature does the source give for `*C(=O)NNC(=O)c1ccc([Si](c2ccccc2)(c2ccccc2)c2ccc(C(=O)NNC(=O)c3cncc(*)c3)cc2)cc1` (repeat unit) here?
Answer: Its glass transition temperature is 234.00 °C.

Question: With `*c1ccc(Cc2ccc(-n3nccc3-c3cccc(-c4ccnn4*)c3)cc2)cc1` (repeat unit) as the compound, how does the glass transition temperature read?
Answer: The glass transition temperature was 212.00 °C.

Question: For `*CCCCCCCCCCOC(=O)CC/C=C/CCC(=O)O*` (repeat unit), which glass transition temperature is on record?
Answer: The glass transition temperature was -15.00 °C.

Question: For `*C(=O)OCC(COc1ccc(/N=N/c2ccc(C#N)cc2)cc1)OC(=O)c1ncccc1*` (repeat unit), which glass transition temperature is on record?
Answer: Its glass transition temperature is 130.00 °C.

Question: With `*c1ccc(Oc2ccc(N3C(=O)C4CCC5C(=O)N(*)C(=O)C5C4C3=O)cc2)cc1` (repeat unit) as the compound, how does the glass transition temperature read?
Answer: Its glass transition temperature is 342.00 °C.

Question: Which glass transition temperature does the source give for `*Oc1ccc(/N=C(\c2ccccc2)c2ccc(Oc3ccc(C(C)(C)c4ccc(Oc5ccc(/C(=N/c6ccc(*)cc6)c6ccccc6)cc5)cc4)cc3)cc2)cc1` (repeat unit) here?
Answer: The glass transition temperature was 155.00 °C.

Question: For `*Oc1ccc(CC(NC(=O)CCc2ccc(OC(=O)CC(C)CCC(*)=O)cc2)C(=O)OC(C)CC)cc1` (repeat unit), which glass transition temperature is on record?
Answer: Its glass transition temperature is 45.00 °C.

Question: Which glass transition temperature does the source give for `*CC(=O)Nc1ccc(Oc2ccc(Oc3ccc(NC(=O)CN4C(=O)c5ccc(C(=O)c6ccc7c(c6)C(=O)N(*)C7=O)cc5C4=O)cc3)cc2)cc1` (repeat unit) here?
Answer: The glass transition temperature was 230.00 °C.

Question: With `*c1ccc(Oc2ccc(C(C)(C)c3ccc(Oc4ccc(-c5nnc(*)o5)cc4)cc3)cc2)cc1` (repeat unit) as the compound, how does the glass transition temperature read?
Answer: Its glass transition temperature is 180.00 °C.

Question: For `*CC(=O)Nc1ccc(NC(=O)COc2ccc3ccccc3c2Sc2c(O*)ccc3ccccc23)cc1` (repeat unit), which glass transition temperature is on record?
Answer: Its glass transition temperature is 268.00 °C.

Question: Which glass transition temperature does the source give for `*Oc1cccc(Oc2cccc(OC(*)=O)c2)c1` (repeat unit) here?
Answer: Its glass transition temperature is 71.00 °C.

Question: With `*C(=O)c1ccc(C(=O)c2ccc3c(c2)C(=O)N(c2ccc(C(=O)c4ccc(C(=O)c5ccc(N6C(=O)c7ccc(*)cc7C6=O)cc5)cc4)cc2)C3=O)cc1` (repeat unit) as the compound, how does the glass transition temperature read?
Answer: Its glass transition temperature is 260.00 °C.

Question: With `*Oc1ccc(S(=O)(=O)c2ccc(Oc3ccc(C(C)(C)c4ccc(*)c(C(OC)(C(F)(F)F)C(F)(F)F)c4)cc3C(OC)(C(F)(F)F)C(F)(F)F)cc2)cc1` (repeat unit) as the compound, how does the glass transition temperature read?
Answer: The glass transition temperature was 163.00 °C.

Question: With `*CC(*)(C)C(=O)OCCCCCCOc1ccc(/N=N/c2ccc(C#N)cc2)cc1` (repeat unit) as the compound, how does the glass transition temperature read?
Answer: The glass transition temperature was 61.00 °C.

Question: For `*Oc1ccc2c(c1)C1(CC2(C)C)CC(C)(C)c2ccc(OC(=O)c3ccc(C(*)=O)cc3)cc21` (repeat unit), which glass transition temperature is on record?
Answer: Its glass transition temperature is 290.00 °C.

Question: Which glass transition temperature does the source give for `*c1ccc(Cc2cccc(-n3c(=O)c4cc5c(=O)n(*)c(=O)c5cc4c3=O)c2)cc1` (repeat unit) here?
Answer: The glass transition temperature was 339.00 °C.

Question: With `*c1ccc(C(=O)Oc2c(C)cc(C(c3cccnc3)c3cc(C)c(OC(=O)c4ccc(N5C(=O)CC(Nc6ccc(NC7CC(=O)N(*)C7=O)cc6)C5=O)cc4)c(C)c3)cc2C)cc1` (repeat unit) as the compound, how does the glass transition temperature read?
Answer: Its glass transition temperature is 212.00 °C.

Question: Which glass transition temperature does the source give for `*Oc1ccc(Oc2ccc(C(=O)Nc3ccc(Oc4ccc(S(=O)(=O)c5ccc(Oc6ccc(NC(=O)c7ccc(*)cc7)cc6)cc5)cc4)cc3)cc2)cc1` (repeat unit) here?
Answer: Its glass transition temperature is 220.00 °C.

Question: With `*c1nnc(-c2ccc(Oc3ccc(/C=C/c4ccc(Oc5ccc(*)c6ccccc56)cc4)cc3)c3ccccc23)o1` (repeat unit) as the compound, how does the glass transition temperature read?
Answer: Its glass transition temperature is 238.00 °C.

Question: For `*Oc1cccc2ccc(Oc3ccc(NC(=O)c4ccc(Oc5ccc(C(C)(c6ccccc6)c6ccc(Oc7ccc(C(=O)Nc8ccc(*)cc8)cc7)cc6)cc5)cc4)cc3)cc12` (repeat unit), which glass transition temperature is on record?
Answer: The glass transition temperature was 212.00 °C.
